Experimental data as given in patent US9365830B2, “Agents and methods for inhibiting human pluripotent stem cell growth” (VIACYTE, INC., priority 2010, dated 2016).
“Also recorded” adds a separate entry of the source.

Legend:
Type in all cases: cell-based, human
[1] = system: differentiating definitive endoderm (DE) cell cultures; assay: 96-well plate impedance assay (ACEA) on differentiating definitive endoderm at lowest effective dose; design: key: Viable: Compounds that did not appear to be cytotoxic toward differentiating DE cultures were marked as “viable”, meaning that the compound did not affect the survival, growth, proliferation or differentiation of the differentiated cells; conditions: at the lowest effective dose on either hESC or NPC
Source text: (§1) The impedance assay on the hESCs using the compounds in Table 4 above gave greater than twenty (20) hits. However, the ideal candidate compound of the present invention should not only be inhibitory or cytotoxic to human pluripotent stem cells, such as hESCs or hIPSCs, but should at the same time have no effect on cell viability of differentiated or differentiating cell populations including Stage 1, 2, 3, 4 and 5 type cells cultures (definitive endoderm, foregut endoderm, posterior foregut, pancreatic endoderm and endocrine cells, respectively). […] Approximately 3×10^4 hES cells were plated per well and grown for 24 hrs in DC-HAIF defined medium (i.e. StemPro® hESC SFM medium (Life Technologies, Carlsbad, Calif.). Stage 1 or definitive endoderm differentiation was then induced by changing the medium and culturing in RPMI, 100 ng/mL Activin A, and 10 ng/mL of FGF2. […] of GSK-3 beta Inhibitor 15 (Calbiochem #361558) as added to the culture for the first 24 hours of differentiation only. 10 μM of each of the candidate compounds were added about 48 hours or 2 days after differentiation was induced (see FIGS. 3 C & D, large arrowhead), and the cells were cultured for an additional 2 days.
Using a range of different concentrations from 0.1 to 50 μM, the forty compounds in Table 6 were re-screened (secondary screen) using hESCS and NPCs. The effective dose (ED) was defined as the lowest concentration of a compound that elicited cytotoxicity during the secondary screen. […] The darker wells were indicative of the increased numbers or percentages of proliferating or growing pluripotent stem cells in the wells. In addition, these 40 compounds were screened on differentiating definitive endoderm (DE) cell cultures in 96-well plate impedance assays (described above) to determine which of these compounds were not cytotoxic to definitive endoderm cells at the lowest effective dose on either hESC or NPC. […] See “ACEA DE” column in Table 6.

[2] = system: adherent Stage 1 cell cultures of BG02; assay: Q-PCR marker gene expression, adherent Stage 1 cultures of BG02; conditions: for SOX17 gene expression: end of Stage 1, compared to DMSO control (FIG. 4D); for OCT4 and NANOG gene expression: end of Stage 1, compared to DMSO control (FIGS. 4A, 4B); for FOXA2 (HNF3β) expression: end of Stage 1, compared to DMSO control (FIG. 4C)
Source text: FIGS. 4A-4G are bar graphs showing the relative gene expression levels of OCT4 (FIG. 4A), NANOG (FIG. 4B), FOXA2 (FIG. 4C), SOX17 (FIG. 4D), SOX7 (FIG. 4E), PAX6 (FIG. 4F) and ZIC1 (FIG. 4G) BG02 with treatment of candidate selective cytotoxic agents from the LOPAC1280™ sublibrary (Table 4) to adherent Stage 1 cell cultures of BG02. Expression levels were normalized using the geometric mean of three housekeeping genes, GUSB, CYCG and TBP. The graphs depict fold regulation compared to the hESC sample. The large arrow heads indicate time of the drug treatment. D=DMSO (control); C=Chelerythrine Chloride; A=AG490; B=BTO-1; De=Dephostatin; S=SU6656.
Screen for Effects on Stages 1-5 Differentiation. To further determine whether these 5 candidate compounds added at Stage 1 affected other differentiated cell types (e.g. Stages 2-5: foregut endoderm, posterior foregut endoderm, pancreatic endoderm and endocrine precursor cells, respectively), hES were differentiated in the presence or absence of compounds, and RNA samples were taken at various stages for gene expression analysis by Q-PCR.
Gene expression levels were plotted relative to a DMSO treated control at the end of Stage 1 (FIG. 4), and relative to undifferentiated hESC aggregates (FIGS. 5 and 6). See “Control” in FIGS. 4, 5 & 6. […] Chelerythrine chloride, Dephostatin, SU 6656 and Tyrphostin AG 490 compounds each caused an increase in SOX17 gene expression as compared to the DMSO control, consistent with the gene expression profile for Stage 1 definitive endoderm cell cultures (FIG. 4D). However, Tyrphostin AG 490 (AG) and SU 6656 (SU) each caused a decrease in FOXA2 (HNF3β) expression as compared to the DMSO control, indicating adverse effects of these two compounds on definitive endoderm (FIG. 4C). Yet none of the compounds appeared to substantially impact expression of non-definitive endoderm markers including SOX7, PAX6 or ZIC1 (FIGS. 4 E, 4F & 4G), and were not, therefore, excluded on the basis of inducing differentiation to other cell types. […] This compound neither decreased OCT4 or NANOG expression, nor increased FOXA2 (HNF3β) or SOX17 expression, as would have been expected of a pluripotent stem cell-selective inhibitor/cytotoxic agent.

[3] = system: differentiating Stage 1 cultures (definitive endoderm); assay: Secondary screen on differentiating Stage 1 cultures in 6-well trays; conditions: compounds added to differentiating Stage 1 cultures
Source text: as §1
Secondary Screen with Selected Compounds. A secondary screen using 9 of the 10 candidate compounds in Table 5 was performed by adding the compounds to differentiating Stage 1 cultures (definitive endoderm) as described above. For the secondary screen, larger standard 6-well trays were used instead of the RT-CEAS 96-well culture plates used in primary screens employing impedance assays. Only 9 of the 10 compounds in Table 5 were tested because the 10th was not available in sufficient quantity at the time the assays were performed. In the larger, 6-well trays, 5 of the 9 compounds listed in Table 5 had no effect on viability of differentiating cells or differentiated definitive endoderm. […] This assay also confirmed that the viability of differentiating cells and differentiated definitive endoderm cells was apparently consistent regardless of the numbers of cells tested, or the size, volume, or source of the culture vessel.

Row | Compound | ACEA DE [1] | SOX17 gene expression [2] | OCT4 and NANOG gene expression [2] | Viability of Definitive Endoderm [3] | FOXA2 (HNF3β) expression [2]
1 | 22, 23-dihydroavermectin B1a+22,23-dihydroavermectin B1b [Ivermectin] | Viable | – | – | – | –
2 | CN(N=O)c1cc(O)ccc1O [Dephostatin] | – | increase | subtle relative decrease | capable of growth and proliferation; also recorded: Viable | –
3 | CN(C)S(=O)(=O)c1ccc2c(c1)/C(=C/c1cc3c([nH]1)CCCC3)C(=O)N2 [SU 6656] | Viable | increase | subtle relative decrease | capable of growth and proliferation; also recorded: Viable | decrease
4 | N#C/C(=C\c1ccc(O)c(O)c1)C(=O)NCc1ccccc1 [Tyrphostin AG 490] | Viable | increase | subtle relative decrease | capable of growth and proliferation; also recorded: Viable | decrease
